These results are taken from US9943524B2, “Use of alkaloid in preparing pharmaceutical compositions for preventing or treating pulmonary fibrosis” (China Pharmaceutical University, priority 2014, dated 2018).

The subject of series [1] is pulmonary fibrosis mice induced by bleomycin. In words: Determination of mice mortality (Embodiment 4). It is filed as in vivo, C57BL/6 mice. As to the method:
Female C57BL/6 mice (eight-week-old) are established for models after 7 days, the time is set for the mice to adapt to the environment. After fasts for overnight, the mice are anaesthetized by 3% chloral hydrate and fixed. Sterilize and incise neck skin longitudinally as little injury as possible. Split fascia and muscle with tweezers longitudinally and expose the windpipe. Then, about 35 μl (3.5 mg/kg) bleomycin are injected into windpipe with microinjector. Put the mice upright rapidly and rotate the mice for 3˜5 minutes, so that bleomycin is able to enter into the pulmones uniformly. Observe the breathing of mice. Sterilize neck injury with 75% alcohol tampon and stitch the wound, then 1 drop or 2 drops of benzylpenicillin injection is/are dripped into the suture. Put the mice back into dry and clean cages, and feed them normally after waking up. Operations are done on operating table at about […]. Physiological saline using in injection is injected into windpipe of sham operation group.
Model animals are divided into prevention groups and treatment groups, then drugs are given to the two groups respectively. According to internationally methods of drug administration, drugs are given continuously to the prevention groups by means of intragastric administration from the second day after successfully establishing model to the 14th day, and drugs are given continuously to treatment groups by means of intragastric administration from the 8th day after successfully establishing model to the 21th day. Groups and dosage regimen are shown in tab.1.
From the 0th day (the day when the model is established) to 14th day, drugs are given continuously to prevention groups. From the 8th day after successfully establishing model to 21th day, drugs are given continuously to treatment groups. Statistical analysis of death of animals in each group is carried on every day and the survival rate of animals in each group is calculated. Results are shown in tab.2.

Series [2] has as its system TGF-β1. The settings on record: cited from earlier work.
For series [3] the following is noted: cited from earlier work.

As to `Cc1ccc(=O)n(-c2ccccc2)c1` [Pirfenidone, pirfenidone, reference compound], the Survival rate in series [1] (prevention groups, 300 mg/kg intragastric to the 14th day) came to 70%; in series [1] (treatment groups, 300 mg/kg intragastric from the 8th to the 21th day), 67%. Further, the “Mortality (number of dead animals)” value in series [1] (prevention groups, 300 mg/kg intragastric to the 14th day, 10 animals) is on record as 3; in series [1] (treatment groups, 300 mg/kg intragastric from the 8th to the 21th day, 18 animals), 6. The “inhibition of pro-fibrogenic factors” value in series [2] was “can inhibit the pro-fibrogenic factors such as TGF-β1”. The clinical side effects result in series [3] is on record as “photosensitization”.
